Experimental findings from ChEMBL document CHEMBL3046713, “Synthesis and antimicrobial activity of pyrimidine chalcones” (2013) are described below.

Common to all, as to assay type: functional
In assay [1] the test system is Escherichia coli. The assay is described as follows: Antibacterial activity against Escherichia coli DH5[alpha] at 5 mg/ml after 24 hrs by Kirby-Bauer single disc susceptibility test. The conditions noted are these: read-out: DIZ.
The subject of assay [2] is Escherichia coli. The assay is described as follows: Antibacterial activity against Escherichia coli DH5[alpha] at 2.5 mg/ml after 24 hrs by Kirby-Bauer single disc susceptibility test. The conditions noted are these: read-out: DIZ.
In assay [3] the test system is Rhodococcus rhodochrous. The assay is described as follows: Antibacterial activity against Rhodococcus rhodochrous MTCC 265 at 5 mg/ml after 24 hrs by Kirby-Bauer single disc susceptibility test. The conditions noted are these: MTCC 265, 24 h, read-out: DIZ.
The subject of assay [4] is Rhodococcus rhodochrous. The assay is described as follows: Antibacterial activity against Rhodococcus rhodochrous MTCC 265 at 2.5 mg/ml after 24 hrs by Kirby-Bauer single disc susceptibility test. The conditions noted are these: MTCC 265, 24 h, read-out: DIZ.

For the molecule `Cn1c(O)c(C(=O)/C=C/c2ccc(OCc3cn(-c4ccc(F)cc4)nn3)cc2)c(=O)n(C)c1=O`, the zone of inhibition at 5000 µg/mL in the assay on Escherichia coli [1] and with Rhodococcus rhodochrous [3] was 0 mm in each case. For the same molecule, the zone of inhibition at 2500 µg/mL with Escherichia coli [2] and in the assay with Rhodococcus rhodochrous [4] was 0 mm each time.

Regarding `Cn1c(O)c(C(=O)/C=C/c2ccc(OCc3cn(-c4ccccc4)nn3)cc2)c(=O)n(C)c1=O`, the zone of inhibition at 5000 µg/mL with Escherichia coli [1] and with Rhodococcus rhodochrous [3] was 3 mm throughout. The zone of inhibition at 2500 µg/mL in the assay with Escherichia coli [2] and with Rhodococcus rhodochrous [4] was 4 mm each time.

`COc1cccc(-n2cc(COc3ccc(/C=C/C(=O)c4c(O)n(C)c(=O)n(C)c4=O)cc3)nn2)c1`: the zone of inhibition at 5000 µg/mL in the assay on Escherichia coli [1] was determined as 3.5 mm; in the assay with Rhodococcus rhodochrous [3], 2 mm. Besides, the zone of inhibition at 2500 µg/mL in the assay with Escherichia coli [2] and with Rhodococcus rhodochrous [4] was 3 mm each time.

As for `Cc1cccc(-n2cc(COc3ccc(/C=C/C(=O)c4c(O)n(C)c(=O)n(C)c4=O)cc3)nn2)c1`, the zone of inhibition at 5000 µg/mL in the assay on Escherichia coli [1] and in the assay on Rhodococcus rhodochrous [3] was 2 mm throughout. For the same molecule, the figures for the zone of inhibition at 2500 µg/mL in the assay on Escherichia coli [2] and in the assay on Rhodococcus rhodochrous [4] were 2 mm and 3 mm, respectively.

For the molecule `Cn1c(O)c(C(=O)/C=C/c2ccc(OCc3cn(-c4ccc(Br)cc4)nn3)cc2)c(=O)n(C)c1=O`, the zone of inhibition at 5000 µg/mL is 0 mm in the assay on Escherichia coli [1] and 2 mm in the assay with Rhodococcus rhodochrous [3]. For the same molecule, the zone of inhibition at 2500 µg/mL in the assay with Escherichia coli [2] was 0 mm; in the assay on Rhodococcus rhodochrous [4], 3 mm.

Regarding `Cn1c(O)c(C(=O)/C=C/c2ccc(OCc3cn(-c4ccc(Cl)cc4)nn3)cc2)c(=O)n(C)c1=O`, the zone of inhibition at 5000 µg/mL with Escherichia coli [1] and in the assay with Rhodococcus rhodochrous [3] was 0 mm throughout. Further, the zone of inhibition at 2500 µg/mL in the assay on Escherichia coli [2] and in the assay with Rhodococcus rhodochrous [4] was 0 mm in each case.

Take `Cn1c(O)c(C(=O)/C=C/c2ccc(OCc3cn(Cc4ccccc4)nn3)cc2)c(=O)n(C)c1=O`: the zone of inhibition at 5000 µg/mL was 0 mm with Escherichia coli [1] and 2 mm in the assay on Rhodococcus rhodochrous [3]. In addition, the zone of inhibition at 2500 µg/mL in the assay on Escherichia coli [2] is 0 mm; in the assay with Rhodococcus rhodochrous [4], 2 mm.

As for `COc1ccc(-n2cc(COc3ccc(/C=C/C(=O)c4c(O)n(C)c(=O)n(C)c4=O)cc3)nn2)cc1`, the zone of inhibition at 5000 µg/mL in the assay on Escherichia coli [1] was 0 mm; with Rhodococcus rhodochrous [3] it was 2 mm. The zone of inhibition at 2500 µg/mL in the assay with Escherichia coli [2] stood at 0 mm; in the assay with Rhodococcus rhodochrous [4], 2 mm.
